Test results published in EP0778023B1, “Product comprising rapamycin or particular derivatives and an NMDA or AMPA antagonist for use for the treatment of epilepsy or Huntington's Disease, and the use of rapamycin or particular derivatives for the manufacture of a medicament for the treatment of epilepsy or Huntington's Disease” (Wyeth, priority 1995, dated 1997).

What was measured:
Cortical neurons = experiment: ischemia induced neurotoxicity in cortical cultures with NMDA and AMPA inhibitors, LDH activity; format: cell-based, rat; conditions: 1 week old cortical cell cultures
Protocol: (§1) Briefly, rat hippocampal and cortical cultures were prepared according to the method of Furshpan and Potter with some modifications. [Neuron 3:199 (1989)]. Brains were removed from newborn Long Evans pups anesthetized with an injection of 0.1 ml of 20% chloral hydrate. The hippocampi were dissected out and separated from the rest of the cortex. Both tissues were enzymatically digested in 5 ml Earle's Balanced Salt Solution (EBSS) containing 20 u/ml papain, 1 mM L-cysteine, and 0.5 mM EDTA for 30 minutes at 37°C with gentle rocking. The hippocampi and cortical tissues were then washed once with EBSS and the digestion was stopped by incubating at 37°C for 30 minutes with 3-5 mis of inhibitor solution containing 1 mg/ml ovomucoid and 1 mg/ml albumin in EBSS. The digested hippocampi and cortical tissues were washed twice with DME without L-glutamine with 4.5 g/L dextrose before being triturated in 2 ml of DME supplemented with 5% fetal calf serum, 5% rat serum, 50 u/ml penicillin, 0.05 mg/ml streptomycin and MlTO+ serum extender [a medium supplement from Collaborative Biomedical Products] (10% DME). After 50 triturations, undissociated tissue was allowed to settle and the dissociated cell suspension was removed. A fresh 2 ml of 10% DME was added to the remaining tissue and the trituration was repeated. The two cell suspension aliquots were pooled and the cell density was determined with a hemacytometer.
(§2) 30,000 hippocampal cells in 150 µL were plated per well in 96-well plates and incubated at 37°C in 5% CO2. Cortical cells were plated at a density of 500,000 cells per well in 24-well plates. When glia cells were confluent (after approximately 3 days), 4-10 µM cytosine β-D-arabinofuranoside was added to each well to prevent further proliferation. One week after plating, the medium was removed and replaced with DME supplemented with 2.5% fetal calf serum, 2.5% rat serum, 50 u/ml penicillin, 0.05 mg/ml streptomycin, MITO+, 1 mM kynurenate and 10 mM MgCl2 (5% DME + KM). Kynurenate is a nonspecific blocker of glutamate receptors and elevated levels of magnesium block calcium and sodium influx through NMDA receptor channels. The addition of KM prevents neurotoxicity that occurs with glutamate found in serum, and allows neurons to be maintained in culture for up to several months. The cells were fed weekly by exchanging half the medium with fresh 5% DME + KM.
Cortical neurons were washed six times with DME without glucose that has been deoxygenated by bubbling the medium with 95% N2/5% CO2 for at least 10 minutes, to induce an ischemic state that will cause neuronal cell death that can be observed by measuring lactate dehydrogenase levels, as the amount of LDH activity in each well is directly correlated with the number of dead cells. 100 µM [2-(8,9-Dioxo-2,6-diazabicyclo[5.2.0]non-1(7)-en-2-yl)-ethyl]-phosphonic acid (disclosed in U.S. Patent 5,168,103 and 10 µM YM90K were added to certain wells to block NMDA and AMPA glutamate receptors, respectively. To test wells, 1 µM of the compound of Example 1 was added. Control wells were washed with normal DME with glucose and 100 µM [2-(8,9-dioxo-2,6-diazabicyclo[5.2.0]non-1(7)-en-2-yl)ethyl]phosphonic acid. 5 µL samples were taken from each well at different time points following ischemia and the LDH activity in those samples was determined by adding 250 µL of 2 mg NADH/25 mL phosphate buffer to each sample. After incubating for 20-30 minutes, 10 µL of 22.7 mM pyruvate was added and the optical density (OD) at 340 nm read. The change in optical density with time (mOD/min) reflects the amount of LDH in the sample. Higher optical density changes means more LDH activity indicating more cell death. Samples were taken from 4-8 wells per condition and the average and standard deviation for each condition and time point determined.

[1] = tested on: rat hippocampal and cortical cultures (hippocampal neurons); experiment: glutamate induced toxicity in hippocampal cultures, count of live neurons; format: cell-based; conditions: 30 µM glutamate
Protocol: as §1, §2
The compound to be evaluated was dissolved in DMSO to make 10 mM stock solutions and stored in aliquots at -80°C. Just before each procedure was carried out, aliquots of the stock solutions were thawed and diluted in DME or Hanks' Balanced Salt Solution (HBSS) containing 44 mM sodium bicarbonate, 10 mM glucose, and 30 µM glutamate to obtain test concentrations from 1 nM to 10 µM.
After 4-12 weeks in culture, hippocampal cells were washed three times and fed with test compound in HBSS, or serum free DME (SF DME) and 30 to 150 µM glutamate. At least three wells in every test procedure were treated with each drug concentration. 30 µM Glutamate kills 70-80% of the neurons in younger cultures, and more in older cultures. The toxicity induced by 30 µM glutamate was blocked by 1 mM kynurenate + 10 mM MgCl2 (KM).
Following overnight incubation at 37°C, the number of live hippocampal neurons remaining in five fields, representing the north, south, east, and west extremes and the center of each well, were counted. Each field was visualized through a 10x objective with a 15x eyepiece and was approximately 1.54 mm^2 in area. Conditions were generally done in triplicate. The mean number of neurons per well and the standard deviation for each condition were calculated. The mean number of neurons remaining in the control 30 µM glutamate condition reflects those that were not sensitive to glutamate toxicity.

[2] = Time 8 hours, test compound administered with the NMDA and AMPA inhibitors
[3] = Time 13 hours, with the NMDA and AMPA inhibitors
[4] = Time 24 hours, with the NMDA and AMPA inhibitors
[5] = Time 30 hours, with the NMDA and AMPA inhibitors
[6] = 2 nM test compound, HBSS, overnight incubation
[7] = 20 nM test compound, HBSS, overnight incubation
[8] = 200 nM test compound, HBSS, overnight incubation

Molecule	LDH Activity (Cortical neurons; [2]) [mOD/min]	LDH Activity (Cortical neurons; [3]) [mOD/min]	LDH Activity (Cortical neurons; [4]) [mOD/min]	LDH Activity (Cortical neurons; [5]) [mOD/min]	No. Neurons Alive [1, 6]	No. Neurons Alive ([1]; 10nM test compound, SF DME, overnight incubation, mean per well (five fields))	No. Neurons Alive [1, 7]	No. Neurons Alive ([1]; 100nM test compound, SF DME, overnight incubation)	No. Neurons Alive [1, 8]	No. Neurons Alive ([1]; 1µM test compound, SF DME, overnight incubation)	No. Neurons Alive ([1]; 10µM test compound, SF DME, overnight incubation)	No. Neurons Alive ([1]; 1 mM, HBSS, overnight incubation (second table))	No. Neurons Alive ([1]; 1 mM, SF DME, overnight incubation (first table))
CO[C@H]1C[C@@H]2CC[C@@H](C)[C@@](O)(O2)C(=O)C(=O)N2CCCC[C@H]2C(=O)O[C@H]([C@H](C)C[C@@H]2CC[C@@H](O)[C@H](OC)C2)CC(=O)[C@H](C)/C=C(\C)[C@@H](O)[C@@H](OC)C(=O)[C@H](C)C[C@H](C)/C=C/C=C/C=C/1C [Example 1, Rapamycin]	1.04	3.08	9.00	14.02	63	114	71	92	229	46	47	–	–
CO[C@H]1C[C@@H]2CC[C@@H](C)[C@@](O)(O2)C(=O)C(=O)N2CCCC[C@H]2C(=O)O[C@H]([C@H](C)C[C@@H]2CC[C@@H](OS(=O)(=O)c3ccc(N=Nc4ccc(N(C)C)cc4)cc3)[C@H](OC)C2)CC(=O)[C@H](C)/C=C(\C)[C@@H](O)[C@@H](OC)C(=O)[C@H](C)C[C@H](C)/C=C/C=C/C=C/1C [Example 3, Rapamycin 42-ester with 4-[[4-(dimethylamino)phenyl]azo]benzenesulfonic acid]	0.84	2.36	7.03	11.25	98	–	285	–	241	–	–	–	–
O=C(O)c1cc(O)c2ccccc2n1 [Kynurenate, kynurenate, reference compound]	–	–	–	–	–	–	–	–	–	–	–	202	82
Rapamycin 1,3, Diels Alder adduct with Phenyltriazolinedione [Example 2]	1.08	2.31	7.69	12.43	110	–	180	–	127	–	–	–	–
Rapamycin 1,3-Diels Alder adduct with methyltriazolinedione [Example 4]	0.91	2.54	8.21	13.31	117	–	130	–	157	–	–	–	–
Rapamycin-O-benzyl-27-oxime [Example 5]	0.74	1.65	4.82	8.83	131	–	96	–	135	–	–	–	–
